Source: patent publication US20130190223A1, “NONIMMUNOSUPPRESSIVE CYCLOSPORINE ANALOGUE MOLECULES” (ISOTECHNIKA PHARMA INC., priority 2008, published 2013)

Columns and labels:
CyP-D = target: T1, CyP-D (Rattus norvegicus, UniProt P29117); type: biochemical; conditions: mitochondria isolated from rat liver, 190 μM calcium, swelling as decline in A540
T1 construct: Mitochondria were isolated from fresh rat liver; from tissue; host or cells: rat liver mitochondria
Text: A mitochondria swelling assay was used to measure the efficacy of NICAMs in blocking CyP-D and mitochondrial permeability transition. Under certain pathological conditions, mitochondria lose the ability to regulate calcium levels, and excessive calcium accumulation in the mitochondrial matrix results in the opening of large pores in the inner mitochondrial membrane. Nonselective conductance of ions and molecules up to 1.5 kilodaltons through the pore, a process called mitochondrial permeability transition, leads to swelling of mitochondria and other events which culminate in cell death. […] In general, mitochondria isolated from rat liver were exposed to calcium to induce MPTP opening in the absence or presence of test compounds, and calcium-induced swelling was measured as a reduction in light absorbance at 540 nm.
Mitochondria were isolated from fresh rat liver. Ice-cold or 4° C. conditions were used throughout all steps of the isolation. The liver was rinsed thoroughly and chopped in a small volume of isolation buffer (IB; 10 mM Hepes, 70 mM sucrose, 210 mM mannitol, 0.5 mM EDTA). Aliquots of the minced liver were homogenized in IB using a Teflon-glass Potter-Elvehjem tissue grinder and passed through a cell screen filter. The filtered homogenate was centrifuged at 600 g for 10 min, then the resulting supernatant centrifuged at 7000 g for 10 min. The supernatant was discarded, and the pellet resuspended in wash buffer (10 mM Hepes, 70 mM sucrose, 210 mM mannitol) and centrifuged a final time at 7000 g for 10 min. The supernatant was discarded, and the mitochondria-containing pellet suspended and stored on ice in 2 mL of respiration buffer (RB; 5 mM Hepes, 70 mM sucrose, 210 mM mannitol, 10 mM sodium succinate, 1 mM sodium phosphate dibasic).
Test compound solutions were prepared from 10 mg/ml stocks (dimethyl sulfoxide vehicle) first by diluting the test compound 1000× into respiration buffer #2 (RB2; 5 mM Hepes, 70 mM sucrose, 210 mM mannitol, 10 mM sodium succinate, 1 mM sodium phosphate dibasic, 1% fetal bovine serum, 2 μM rotenone), then by 3×-serial dilutions in RB2 to achieve test compound concentrations of 10000, 3333, 1111, 370, 123, 41, and 14 ng/mL. Polystyrene tubes and plates were used for all preparations.
Swelling assays were completed in a 96-well flat-bottom polystyrene plates. In each well a 10-μL aliquot of mitochondria suspension, equivalent to 100-200 μg total protein, was combined with 90 μL of test compound, incubated for 10 min, then the baseline absorbance measured on a plate reader (540 nm wavelength; A540). Swelling was induced by adding 5 μL of 4 mM calcium chloride to achieve a final calcium concentration of 190 μM. Mitochondria swelling was indicated by a decline in A540. […] Duplicate samples were assayed for each test compound concentration.
Means and ranges of duplicate samples are shown.

human lymphocytes = assay: Immunosuppressive potency: inhibition of proliferation of anti-CD3 stimulated human lymphocytes (CFSE, flow cytometry); type: cell-based; conditions: relative potency: IC50 for inhibition of cell division normalized to CsA, 3 days incubation
Experimental: The immunosuppressive potency of test compounds was assessed by measuring their ability to inhibit the proliferation of human lymphocytes in cell culture. Lymphocytes were isolated from blood of normal human volunteers by Ficoll-gradient centrifugation and stained with 2 μg/ml carboxyfluoroscein diacetate succinimydyl ester (CFSE), a fluorescent cell division tracer molecule. Cells were stimulated through the CD3/T-cell receptor by seeding cells at 300,000/well into 96-well flat-bottom, high-binding plates coated with 1 μg/ml UCHT-1 anti-human CD3 antibody. Test compounds were prepared first as 10 mg/ml stock solutions in dimethylsulfoxide (DMSO). Test solutions were prepared by 500-fold dilution of the DMSO stock solutions, then 3-fold serial dilutions in cell culture medium (RPMI+5% FBS+penicillin-steptomycin) for a total of 7 concentrations per compound. Test solutions were added in equal volume to the culture wells containing cells to achieve final concentrations after dilution of 13.7 ng/ml-10,000 ng/ml. […] Following 3 days incubation cells were stained with CD95-APC (lymphocyte activation marker) and analyzed by flow cytometry with a Becton Dickinson FACSCalibur. Percentage cell division was assessed in forward/side-scatter-gated lymphocytes by measuring the proportion of cells that underwent one or more cell divisions as determined by serial halving of CFSE intensity. The nondivided parent population was determined from samples maintained in culture without anti-CD3 stimulation. IC50 values for inhibition of cell division were determined by nonlinear regression analysis. […]

T1 sequence (P29117 30-206): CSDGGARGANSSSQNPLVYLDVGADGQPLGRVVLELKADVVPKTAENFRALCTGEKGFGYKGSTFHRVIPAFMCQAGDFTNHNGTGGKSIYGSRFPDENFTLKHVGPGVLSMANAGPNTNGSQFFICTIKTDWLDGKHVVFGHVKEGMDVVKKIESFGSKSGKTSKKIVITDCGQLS

| SMILES | CYP-D Inhibition (% Potency Vs CsA) (CyP-D) | Immunosuppression (% Relative to CsA) (human lymphocytes) |
| --- | --- | --- |
| CCCC=CCC(C)C(O)C1C(=O)NC(CC)C(=O)N(C)CC(=O)N(C)C(CC(C)C)C(=O)NC(C(C)C)C(=O)N(C)C(CC(C)C)C(=O)NC(C)C(=O)NC(C)C(=O)N(C)C(CC(C)C)C(=O)N(C)C(CC(C)C)C(=O)N(C)C(C(C)C)C(=O)N1C (stereo not shown) [Compound 404-26] | 58.4% |  |
| CCCCCCCC=CCC(C)C(O)C1C(=O)NC(CC)C(=O)N(C)CC(=O)N(C)C(CC(C)C)C(=O)NC(C(C)C)C(=O)N(C)C(CC(C)C)C(=O)NC(C)C(=O)NC(C)C(=O)N(C)C(CC(C)C)C(=O)N(C)C(CC(C)C)C(=O)N(C)C(C(C)C)C(=O)N1C (stereo not shown) [Compound 404-44] | 1.2% | 1% |
| CCC1NC(=O)C(C(O)C(C)CCCCC(=O)N(CC)CC)N(C)C(=O)C(C(C)C)N(C)C(=O)C(CC(C)C)N(C)C(=O)C(CC(C)C)N(C)C(=O)C(C)NC(=O)C(C)NC(=O)C(CC(C)C)N(C)C(=O)C(C(C)C)NC(=O)C(CC(C)C)N(C)C(=O)CN(C)C1=O (stereo not shown) [Compound 404-85] | 128.7% | 2% |
| CCC1NC(=O)C(C(O)C(C)CCCC(C)O)N(C)C(=O)C(C(C)C)N(C)C(=O)C(CC(C)C)N(C)C(=O)C(CC(C)C)N(C)C(=O)C(C)NC(=O)C(C)NC(=O)C(CC(C)C)N(C)C(=O)C(C(C)C)NC(=O)C(CC(C)C)N(C)C(=O)CN(C)C1=O (stereo not shown) [Compound 404-98] | 162.7% | 3% |
| CCC1NC(=O)C(C(O)C(C)CC(O)CO)N(C)C(=O)C(C(C)C)N(C)C(=O)C(CC(C)C)N(C)C(=O)C(CC(C)C)N(C)C(=O)C(C)NC(=O)C(C)NC(=O)C(CC(C)C)N(C)C(=O)C(C(C)C)NC(=O)C(CC(C)C)N(C)C(=O)CN(C)C1=O (stereo not shown) [Compound 404-126] | 24.6% | <1% |
| CCC1NC(=O)C(C(O)C(C)CCCCC(N)=O)N(C)C(=O)C(C(C)C)N(C)C(=O)C(CC(C)C)N(C)C(=O)C(CC(C)C)N(C)C(=O)C(C)NC(=O)C(C)NC(=O)C(CC(C)C)N(C)C(=O)C(C(C)C)NC(=O)C(CC(C)C)N(C)C(=O)CN(C)C1=O (stereo not shown) [Compound 404-130] | 114.7% | <1% |
| CCC1NC(=O)C(C(O)C(C)CCCCC(=O)N(C)C)N(C)C(=O)C(C(C)C)N(C)C(=O)C(CC(C)C)N(C)C(=O)C(CC(C)C)N(C)C(=O)C(C)NC(=O)C(C)NC(=O)C(CC(C)C)N(C)C(=O)C(C(C)C)NC(=O)C(CC(C)C)N(C)C(=O)CN(C)C1=O (stereo not shown) [Compound 404-132] | 122.0% | <1% |
| CCC1NC(=O)C(C(O)C(C)CC=CCCCCC(=O)N(C)C)N(C)C(=O)C(C(C)C)N(C)C(=O)C(CC(C)C)N(C)C(=O)C(CC(C)C)N(C)C(=O)C(C)NC(=O)C(C)NC(=O)C(CC(C)C)N(C)C(=O)C(C(C)C)NC(=O)C(CC(C)C)N(C)C(=O)CN(C)C1=O (stereo not shown) [Compound 404-154] | 119.4% | 2% |
| CCC1NC(=O)C(C(O)C(C)CC=CCCCC(=O)N(C)C)N(C)C(=O)C(C(C)C)N(C)C(=O)C(CC(C)C)N(C)C(=O)C(CC(C)C)N(C)C(=O)C(C)NC(=O)C(C)NC(=O)C(CC(C)C)N(C)C(=O)C(C(C)C)NC(=O)C(CC(C)C)N(C)C(=O)CN(C)C1=O (stereo not shown) [Compound 404-156] | 82.2% | 1% |
| CCC1NC(=O)C(C(O)C(C)CC=CCCC(=O)N(C)C)N(C)C(=O)C(C(C)C)N(C)C(=O)C(CC(C)C)N(C)C(=O)C(CC(C)C)N(C)C(=O)C(C)NC(=O)C(C)NC(=O)C(CC(C)C)N(C)C(=O)C(C(C)C)NC(=O)C(CC(C)C)N(C)C(=O)CN(C)C1=O (stereo not shown) [Compound 404-157] | 142.3% | <1% |
| CCC1NC(=O)C(C(O)C(C)CC=CCCCCC(=O)N2CCOCC2)N(C)C(=O)C(C(C)C)N(C)C(=O)C(CC(C)C)N(C)C(=O)C(CC(C)C)N(C)C(=O)C(C)NC(=O)C(C)NC(=O)C(CC(C)C)N(C)C(=O)C(C(C)C)NC(=O)C(CC(C)C)N(C)C(=O)CN(C)C1=O (stereo not shown) [Compound 404-162] | 91.1% | <1% |
| CCC1NC(=O)C(C(O)C(C)CC=CCCCCC(N)=O)N(C)C(=O)C(C(C)C)N(C)C(=O)C(CC(C)C)N(C)C(=O)C(CC(C)C)N(C)C(=O)C(C)NC(=O)C(C)NC(=O)C(CC(C)C)N(C)C(=O)C(C(C)C)NC(=O)C(CC(C)C)N(C)C(=O)CN(C)C1=O (stereo not shown) [Compound 404-164] | 98.9% |  |
| CCCNC(=O)CCC=CCC(C)C(O)C1C(=O)NC(CC)C(=O)N(C)CC(=O)N(C)C(CC(C)C)C(=O)NC(C(C)C)C(=O)N(C)C(CC(C)C)C(=O)NC(C)C(=O)NC(C)C(=O)N(C)C(CC(C)C)C(=O)N(C)C(CC(C)C)C(=O)N(C)C(C(C)C)C(=O)N1C (stereo not shown) [Compound 404-178] | 71.3% | <1% |
| CCC1NC(=O)C(C(O)C(C)CC=CCCC#N)N(C)C(=O)C(C(C)C)N(C)C(=O)C(CC(C)C)N(C)C(=O)C(CC(C)C)N(C)C(=O)C(C)NC(=O)C(C)NC(=O)C(CC(C)C)N(C)C(=O)C(C(C)C)NC(=O)C(CC(C)C)N(C)C(=O)CN(C)C1=O (stereo not shown) [Compound 404-194] | 123.2% | 2% |
| CCC(O)CCCC(C)C(O)C1C(=O)NC(CC)C(=O)N(C)CC(=O)N(C)C(CC(C)C)C(=O)NC(C(C)C)C(=O)N(C)C(CC(C)C)C(=O)NC(C)C(=O)NC(C)C(=O)N(C)C(CC(C)C)C(=O)N(C)C(CC(C)C)C(=O)N(C)C(C(C)C)C(=O)N1C (stereo not shown) [Compound 404-195] | 143.1% | 2% |
| CCC1NC(=O)C(C(O)C(C)CCCO)N(C)C(=O)C(C(C)C)N(C)C(=O)C(CC(C)C)N(C)C(=O)C(CC(C)C)N(C)C(=O)C(C)NC(=O)C(C)NC(=O)C(CC(C)C)N(C)C(=O)C(C(C)C)NC(=O)C(CC(C)C)N(C)C(=O)CN(C)C1=O (stereo not shown) [Compound 420-28] | 78.0% | <1% |
| C=CCC(O)CCCC(C)C(O)C1C(=O)NC(CC)C(=O)N(C)CC(=O)N(C)C(CC(C)C)C(=O)NC(C(C)C)C(=O)N(C)C(CC(C)C)C(=O)NC(C)C(=O)NC(C)C(=O)N(C)C(CC(C)C)C(=O)N(C)C(CC(C)C)C(=O)N(C)C(C(C)C)C(=O)N1C (stereo not shown) [Compound 420-49-1] | 143.6% | 3% |
| CCC1NC(=O)C(C(O)C(C)CC=CCCCCCCCCCC(=O)N(C)C)N(C)C(=O)C(C(C)C)N(C)C(=O)C(CC(C)C)N(C)C(=O)C(CC(C)C)N(C)C(=O)C(C)NC(=O)C(C)NC(=O)C(CC(C)C)N(C)C(=O)C(C(C)C)NC(=O)C(CC(C)C)N(C)C(=O)CN(C)C1=O (stereo not shown) [Compound 420-104] | 55.8% | 11% |
| CCC1NC(=O)C(C(O)C(C)CCCCCCCCO)N(C)C(=O)C(C(C)C)N(C)C(=O)C(CC(C)C)N(C)C(=O)C(CC(C)C)N(C)C(=O)C(C)NC(=O)C(C)NC(=O)C(CC(C)C)N(C)C(=O)C(C(C)C)NC(=O)C(CC(C)C)N(C)C(=O)CN(C)C1=O (stereo not shown) [Compound 420-112] | 106.7% | 2% |
| CCC1NC(=O)C(C(O)C(C)CCCCCCCCCNC(=O)OC(C)(C)C)N(C)C(=O)C(C(C)C)N(C)C(=O)C(CC(C)C)N(C)C(=O)C(CC(C)C)N(C)C(=O)C(C)NC(=O)C(C)NC(=O)C(CC(C)C)N(C)C(=O)C(C(C)C)NC(=O)C(CC(C)C)N(C)C(=O)CN(C)C1=O (stereo not shown) [Compound 420-125] | 42.4% |  |
